Laboratory results published in patent US20250270170A1, “2,3-DIMETHOXY-5-METHYL-1,4-BENZOQUINONE ALKYL ALCOHOL DERIVATIVE AND USE THEREOF” (BEIJING ANJIANXI BIO-MEDICAL TECHNOLOGY CO., LTD., priority 2021, published 2025).
Entries after “also recorded” stand apart in the source; their conditions may differ. Marks after values point to notes of the source that are not given here.

Tests used:
[1] = Example 3: body weight of NCI-N87 tumor-bearing nude mice; type: in vivo, BALB/c nude mice
Protocol: The NCI-N87 cells in the logarithmic growth phase were collected, counted and resuspended in a serum-free RPMI-1640 medium, and the cell concentration was adjusted to 5×10^7 cells/mL. The cells were pipetted with a pipette to disperse them evenly, and the cells were put into a 50-mL centrifuge tube, which was placed in an ice box. A 1-mL syringe was used to draw the cell suspension, which was injected subcutaneously into the axilla of the front right limb of a nude mouse. Each animal was inoculated with 100 μL (5×10^6 cells/mouse) to establish an NCI-N87 transplanted tumor model in nude mice. After the inoculation, the animal status and tumor growth were regularly observed, and the tumor diameter was measured using an electronic vernier caliper. The data were input into an Excel spreadsheet to calculate the tumor volume. When the tumor volume reached 100 to 300 mm^3, 72 animals in good health and with similar tumor volumes were selected and divided into 9 groups (n=8) using randomized block method. The day of grouping was regarded as the first day of the assay (D1). After the start of the assay, the tumor diameter was measured twice a week, the tumor volume was calculated, and the animal body weight was also weighed and recorded. [table] The calculation formula of animal weight loss rate is: wherein BWt represents the animal body weight measured each time during the administration period; BWinitial represents the animal body weight when being grouped for administration. The assay data were calculated and processed statistically using Microsoft Office Excel 2007 software. Unless otherwise specified, the data were expressed as mean±standard error (Mean±SE), and t-test was used for comparison between two groups.

[2] = test system: human colorectal cancer HT29 transplanted tumor; experiment: Example 10: tumor growth in HT-29 transplanted tumor model; type: in vivo, nude mice; conditions: for Mean tumor volume ± SE / tumor growth inhibition rate: HT-29 model, DDP 5 mg/kg i.p. QW × 3, R01 18 mg/kg i.g. BID × 28
Protocol: The human colorectal cancer cell lines HT-29 were obtained from the Cell Bank of the Type Culture Collection Committee of Chinese Academy of Sciences (CAS, cryopreserved in liquid nitrogen in this assay).
HT-29 cells were routinely cultured in a McCoy […] containing 10% fetal bovine serum under culture conditions of 37° C. and 5% CO2. The cells were digested with 0.25% trypsin, and passaged according to the cell growth conditions with a passaging ratio of 1:3 to 1:4.
On D1 of the assay, the HT-29 cells in the logarithmic growth phase were collected, counted and resuspended in serum-free McCoy, and the cell concentration was adjusted to 4×10^7 cells/mL. The cells were pipetted with a pipette to disperse them evenly, and the cells were put into a 50-mL centrifuge tube, which was placed in an ice box. A 1-mL syringe was used to draw the cell suspension, which was injected subcutaneously into the axilla of the front right limb of a nude mouse. Each animal was inoculated with 100 μL (4×10^6 cells/mouse) to establish a HT-29 transplanted tumor model in nude mice. After the inoculation, the animal status and tumor growth were regularly observed. On D12, the tumor diameter was measured using an electronic vernier caliper. The data were input into an Excel spreadsheet to calculate the tumor volume. Tumor-bearing mice in good health and with similar tumor volumes (103 to 179 mm^3) were selected and divided into groups using randomized block method. After the start of the assay, the tumor diameter was measured regularly, the tumor volume was calculated, and the animal body weight was also weighed and recorded.

[3] = test system: VEGF/VEGFR/p-VEGFR and other proteins in NCI-N87 transplanted tumor tissues; experiment: Example 4: Western blot of NCI-N87 transplanted tumor tissue proteins; type: in vivo, nude mice; conditions: Western blot grayscale vs blank solvent group, compound of formula (I) 2 mg/kg, 2 mg/kg
Protocol: Western Blot technology was used to quantitatively detect the expression of VEGF/VEGFR, Survivin and other proteins in tumor tissues. […] In this study, 50 μg of tumor tissue proteins were added to each well, and the working concentrations of the antibodies were diluted according to the instructions. Briefly: the tumor tissue was taken, lysed with an RIPA protein lysis solution containing 1% PMSF and mixed protease inhibitors, and centrifuged at 12000×g for 20 min to take the supernatant; the concentration of proteins was detected by BCA method; 10% SDS-PAGE gel electrophoresis was performed; the proteins from SDS-PAGE gel were transfered to a PVDF membrane by semi-dry […]; the membrane was blocked with a fast blocking buffer for 10 minutes, and a primary antibody at corresponding working concentration was added, and incubated at 4° C. overnight; the membrane was washed with TBST for 3 times, and incubated with a secondary antibody at room temperature for 1 h; after washing the membrane three times, an image was developed and saved, and the grayscale values were analyzed with Image lab; the anti-Vinculin antibody was used as an internal reference control antibody.
The grayscale of the Western blot bands were calculated with Image J software, and Graphpad Prism 5 was used for related statistical processing. A two-sided t-test was used for comparison between two groups. P>0.05 means no significance (NS), P<0.05 is *, […], and P<0.001 is ***.

## COC1=C(OC)C(=O)C(CCCCCCCCCCOC(=O)Cc2c(C)n(C(=O)c3ccc(Cl)cc3)c3ccc(OC)cc23)=C(C)C1=O [compound of formula (I)]
[1]; D13, 2 mg/kg i.g. BID×28
  Mean animal body weight: 18.3 ± 0.4 g
[1]; D13, 6 mg/kg i.g. BID×28
  Mean animal body weight: 17.6 ± 0.3 g
[1]; D13, 18 mg/kg i.g. BID×28
  Mean animal body weight: 17.9 ± 0.5 g
[1]; D16, 2 mg/kg i.g. BID×28
  Mean animal body weight: 18.2 ± 0.5 g
  body weight loss rate: (0.41%)
[1]; D16, 6 mg/kg i.g. BID×28
  Mean animal body weight: 17.6 ± 0.3 g
  body weight loss rate: (0.28%)
[1]; D16, 18 mg/kg i.g. BID×28
  Mean animal body weight: 17.7 ± 0.4 g
  body weight loss rate: (1.0%)
[1]; D20, 2 mg/kg i.g. BID×28
  Mean animal body weight: 18.2 ± 0.4 g
  body weight loss rate: (0.27%)
[1]; D20, 6 mg/kg i.g. BID×28
  Mean animal body weight: 17.5 ± 0.4 g
  body weight loss rate: (0.50%)
[1]; D20, 18 mg/kg i.g. BID×28
  Mean animal body weight: 17.8 ± 0.3 g
  body weight loss rate: (0.56%)
[1]; D23, 2 mg/kg i.g. BID×28
  Mean animal body weight: 18.5 ± 0.5 g
  body weight loss rate: (−1.0%)
[1]; D23, 6 mg/kg i.g. BID×28
  Mean animal body weight: 18.1 ± 0.5 g
  body weight loss rate: (−2.7%)
[1]; D23, 18 mg/kg i.g. BID×28
  Mean animal body weight: 18.0 ± 0.4 g
  body weight loss rate: (−0.42%)
[1]; D27, 2 mg/kg i.g. BID×28
  Mean animal body weight: 18.7 ± 0.5 g
  body weight loss rate: (−2.5%)
[1]; D27, 6 mg/kg i.g. BID×28
  Mean animal body weight: 18.3 ± 0.5 g
  body weight loss rate: (−3.7%)
[1]; D27, 18 mg/kg i.g. BID×28
  Mean animal body weight: 18.1 ± 0.3 g
  body weight loss rate: (−1.0%)
[1]; D30, 2 mg/kg i.g. BID×28
  Mean animal body weight: 18.9 ± 0.4 g
  body weight loss rate: (−3.4%)
[1]; D30, 6 mg/kg i.g. BID×28
  Mean animal body weight: 18.3 ± 0.4 g
  body weight loss rate: (−4.0%)
[1]; D30, 18 mg/kg i.g. BID×28
  Mean animal body weight: 18.4 ± 0.4 g
  body weight loss rate: (−2.7%)
[1]; D34, 2 mg/kg i.g. BID×28
  Mean animal body weight: 19.3 ± 0.5 g
  body weight loss rate: (−5.8%)
[1]; D34, 6 mg/kg i.g. BID×28
  Mean animal body weight: 18.5 ± 0.4 g
  body weight loss rate: (−5.1%)
[1]; D34, 18 mg/kg i.g. BID×28
  Mean animal body weight: 18.7 ± 0.4 g
  body weight loss rate: (−4.3%)
[1]; D37, 2 mg/kg i.g. BID×28
  Mean animal body weight: 19.5 ± 0.5 g
  body weight loss rate: (−6.5%)
[1]; D37, 6 mg/kg i.g. BID×28
  Mean animal body weight: 18.6 ± 0.4 g
  body weight loss rate: (−5.8%)
[1]; D37, 18 mg/kg i.g. BID×28
  Mean animal body weight: 18.8 ± 0.4 g
  body weight loss rate: (−4.8%)
[1]; D44, 2 mg/kg i.g. BID×28
  Mean animal body weight: 19.2 ± 0.6 g
  body weight loss rate: (−5.2%)
[1]; D44, 6 mg/kg i.g. BID×28
  Mean animal body weight: 19.0 ± 0.5 g
  body weight loss rate: (−8.0%)
[1]; D44, 18 mg/kg i.g. BID×28
  Mean animal body weight: 19.1 ± 0.4 g
  body weight loss rate: (−6.9%)
[1]; NCI-N87 tumor-bearing nude mice, summary of Table 6
  effect on body weight compared with blank control group: no significant effect
[2]; D 12 (grouping)
  Mean tumor volume ± SE: 134 ± 9 mm^3
[2]; D 15
  Mean tumor volume ± SE: 178 ± 7 mm^3
  tumor growth inhibition rate: (40%)
[2]; D 19
  Mean tumor volume ± SE: 280 ± 9** mm^3
  tumor growth inhibition rate: (42%)
[2]; D 22
  Mean tumor volume ± SE: 393 ± 19** mm^3
  tumor growth inhibition rate: (34%)
[2]; D 26
  Mean tumor volume ± SE: 532 ± 31** mm^3
  tumor growth inhibition rate: (31%)
[2]; D 29
  Mean tumor volume ± SE: 631 ± 40** mm^3
  tumor growth inhibition rate: (38%)
[2]; D 33
  Mean tumor volume ± SE: 832 ± 59** mm^3
  tumor growth inhibition rate: (36%)
[2]; D 36
  Mean tumor volume ± SE: 903 ± 73** mm^3
  tumor growth inhibition rate: (37%)
[2]; D 40
  Mean tumor volume ± SE: 1070 ± 94** mm^3
  tumor growth inhibition rate: (33%)
[2]; HT-29 transplanted tumor model in nude mice
  anti-tumor effect in combination with cisplatin (summary): synergistic anti-tumor effect
[3]
  expression of CyclinD1: down-regulated; also recorded: downregulated
  expression of PCNA: up-regulated; also recorded: upregulated
  expression of VEGFA: down-regulated; also recorded: downregulated
  expression of VEGFR2: down-regulated; also recorded: downregulated
  expression of anti-apoptotic protein Survivin: down-regulated; also recorded: downregulated
  expression of cell cycle regulatory protein P21: up-regulated; also recorded: upregulated
  expression of p-VEGFR2: down-regulated; also recorded: downregulated
  expression of pro-apoptotic Bax: down-regulated; also recorded: downregulated
  expression of β-catenin: down-regulated; also recorded: downregulated
